Reference: US7759345B2, “Antitumoral derivatives of ET-743” (priority 2001, dated 2010)

Columns and labels:
SK-OV-3 = experiment: Inhibition of cells growth by colorimetric assay (SRB), SK-OV-3; format: cell-based; details: SRB, 48 hours exposure
In short: (§1)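 Using sulforhodamine B, cell growth and viability are quantified after a 48 h drug exposure of cells maintained in RPMI 1640/10% FBS at 37 °C, 5% CO2. Concentrations span 10 to 10^−8 μg/ml; optical density is read at 490 nm.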

HMEC1 = experiment: Inhibition of cells growth by colorimetric assay (SRB), HMEC1; format: cell-based; details: SRB, 48 hours exposure
In short: as §1

HT-29 = experiment: Inhibition of cells growth by colorimetric assay (SRB), HT-29; format: cell-based; details: SRB, 48 hours exposure
In short: as §1

IGROV-1 = experiment: Inhibition of cells growth by colorimetric assay (SRB), IGROV-1; format: cell-based; details: SRB, 48 hours exposure
In short: as §1

SK-BR-3 = experiment: Inhibition of cells growth by colorimetric assay (SRB), SK-BR-3; format: cell-based; details: SRB, 48 hours exposure
In short: as §1

DU-145 = experiment: Inhibition of cells growth by colorimetric assay (SRB), DU-145; format: cell-based; details: SRB, 48 hours exposure
In short: as §1

PANC-1 = experiment: Inhibition of cells growth by colorimetric assay (SRB), PANC-1; format: cell-based; details: SRB, 48 hours exposure
In short: as §1

LNCaP = experiment: Inhibition of cells growth by colorimetric assay (SRB), LNCaP; format: cell-based; details: SRB, 48 hours exposure
In short: as §1

A-549 = experiment: Inhibition of cells growth by colorimetric assay (SRB), A-549; format: cell-based; details: SRB, 48 hours exposure
In short: as §1

SK-MEL-28 = experiment: Inhibition of cells growth by colorimetric assay (SRB), SK-MEL-28; format: cell-based; details: SRB, 48 hours exposure
In short: as §1

LoVo = experiment: Inhibition of cells growth by colorimetric assay (SRB), LoVo; format: cell-based; details: SRB, 48 hours exposure
In short: as §1

IGROV-ET = experiment: Inhibition of cells growth by colorimetric assay (SRB), IGROV-ET; format: cell-based; details: SRB, 48 hours exposure
In short: as §1

LoVo-Dox = experiment: Inhibition of cells growth by colorimetric assay (SRB), LoVo-Dox; format: cell-based; details: SRB, 48 hours exposure
In short: as §1

K-562 = experiment: Inhibition of cells growth by colorimetric assay (SRB), K-562; format: cell-based; details: SRB, 48 hours exposure
In short: as §1

Description for Heart: (§2) Toxicity was asssessed by the methods reported in Toxicology in Vitro, 15 (2001) 571-577, J. Luber Narod et al.: “Evaluation of the use of in vitro methodolodies as tools for screening new compounds for potential in vivo toxicity”.
Description for Kidney: as §2
Description for Liver: as §2
Description for Myelo: as §2
Description for Skeletal: as §2

COc1cc2c(cc1OC)[C@@]1(CS[C@@H]3c4c(OC(C)=O)c(C)c5c(c4[C@H](COC1=O)N1C3[C@H]3c4c(cc(C)c(OC)c4O)C[C@@H]([C@@H]1O)N3C)OCO5)NCC2 (some centres unmarked) [Compound 67]
Toxicity Data Heart (Heart): 4.54E-08
GI50 (SK-OV-3; Homo sapiens, SK-OV-3, 48 h, SK-OV3, read-out: GI50 SK-OV3): 0.385 nM
LC50 (SK-OV-3; Homo sapiens, SK-OV-3, 48 h, read-out: LC50 SK-OV3, SK-OV3): 7940 nM
TGI SK-OV3 (SK-OV-3; SK-OV3): 8.52E-10
Toxicity Data Myelo (Myelo): 3.27E-08
TGI HMEC-1 (HMEC1; HMEC-1): 8.49E-09
GI50 (HMEC1; Homo sapiens, HMEC-1, 48 h, HMEC-1, read-out: GI50 HMEC-1): 1.02 nM
LC50 (HMEC1; Homo sapiens, HMEC-1, 48 h, read-out: LC50 HMEC-1, HMEC-1): 5050 nM
TGI HT-29 (HT-29; HT-29): 5.59E-09
GI50 (HT-29; Homo sapiens, HT-29, 48 h, HT-29, read-out: GI50 HT-29): 0.741 nM
LC50 (concentration for 50% cell killing) (HT-29; Homo sapiens, HT-29, 48 h, read-out: LC50 HT-29, HT-29): 12900 nM
GI50 (IGROV-1; Homo sapiens, IGROV-1, 48 h, IGROV, read-out: GI50 IGROV): 0.266 nM
CC50 (IGROV-1; Homo sapiens, IGROV-1, 48 h, read-out: LC50 IGROV, IGROV): 1.21 nM
TGI IGROV (IGROV-1; IGROV): 5.67E-10
GI50 (SK-BR-3; Homo sapiens, SK-BR-3, 48 h, SK-BR3, read-out: GI50 SK-BR3): 0.394 nM
CC50 (SK-BR-3; Homo sapiens, SK-BR-3, 48 h, read-out: LC50 SK-BR3, SK-BR3): 7.48 nM
TGI SK-BR3 (SK-BR-3; SK-BR3): 1.11E-09
TGI DU-145 (DU-145; DU-145): 8.61E-10
GI50 (DU-145; Homo sapiens, DU-145, 48 h, DU-145, read-out: GI50 DU-145): 0.433 nM
CC50 (DU-145; Homo sapiens, DU-145, 48 h, read-out: LC50 DU-145, DU-145): 4470 nM
Toxicity Data Liver (Liver): 3.20E-08
Toxicity Data Kidney (Kidney): 5.36E-08
GI50 (PANC-1; Homo sapiens, PANC-1, 48 h, PANC-1, read-out: GI50 PANC-1): 0.443 nM
LC50 (concentration for 50% net cell kill) (PANC-1; Homo sapiens, PANC-1, 48 h, read-out: LC50 PANC-1, PANC-1): 2670 nM
TGI PANC-1 (PANC-1; PANC-1): 1.09E-09
CC50 (LNCaP; Homo sapiens, LNCaP, 48 h, read-out: LC50 LNCAP, LNCAP): 0.844 nM
GI50 (LNCaP; Homo sapiens, LNCAP, read-out: GI50 LNCAP): 0.307 nM
TGI LNCAP (LNCaP; LNCAP): 5.09E-10
TGI A-549 (A-549; A-549): 3.63E-09
GI50 (A-549; Homo sapiens, A549, 48 h, A-549, read-out: GI50 A-549): 1.31 nM
LC50 (concentration for 50% cell killing) (A-549; Homo sapiens, A549, 48 h, read-out: LC50 A-549, A-549): 10.1 nM
GI50 (SK-MEL-28; Homo sapiens, SK-MEL-28, 48 h, MEL-28, read-out: GI50 MEL-28): 0.411 nM
CC50 (SK-MEL-28; Homo sapiens, SK-MEL-28, 48 h, read-out: LC50 MEL-28, MEL-28): 6.24 nM
TGI MEL-28 (SK-MEL-28; MEL-28): 9.90E-10
GI50 (LoVo; Homo sapiens, LoVo, 48 h, LOVO, read-out: GI50 LOVO): 0.602 nM
LC50 (concentration for 50% cell killing) (LoVo; Homo sapiens, LoVo, 48 h, read-out: LC50 LOVO, LOVO): 17.7 nM
TGI LOVO (LoVo; LOVO): 3.34E-09
GI50 (IGROV-ET; Homo sapiens, 48 h, IGROV-ET, read-out: GI50 IGROV-ET): 1.88 nM
CC50 (IGROV-ET; Homo sapiens, 48 h, read-out: LC50 IGROV-ET, IGROV-ET): 4960 nM
TGI IGROV-ET (IGROV-ET; IGROV-ET): 7.02E-09
GI50 (LoVo-Dox; Homo sapiens, 48 h, LOVO-DOX, read-out: GI50 LOVO-DOX): 4.21 nM
CC50 (LoVo-Dox; Homo sapiens, 48 h, read-out: LC50 LOVO-DOX, LOVO-DOX): 12800 nM
TGI LOVO-DOX (LoVo-Dox; LOVO-DOX): 3.65E-08
GI50 (K-562; Homo sapiens, K562, 48 h, K-562, read-out: GI50 K-562): 0.118 nM
LC50 (50% cell killing) (K-562; Homo sapiens, K562, 48 h, read-out: LC50 K-562, K-562): 0.8 nM
TGI K-562 (K-562; K-562): 2.85E-10
Toxicity Data Skeletal (Skeletal): 2.37E-08
